Results from EP1614683B1, “Indazole compounds and pharmaceutical compositions for inhibiting protein kinases, and methods for their use” (priority 1999, dated 2001).
Like-named read-outs stand apart in the source and are kept apart here.

Key:
[1] = molecular target: unphosphorylated VEGF-R2Δ50 (Homo sapiens, UniProt P35968, DEL940-989/E990V); assay: biochemical; conditions: for inhibition at 1 µM: read-out: FLVK* (% inhibition); for inhibition at 0.05 µM: read-out: FLVK ** (% inhibition)
[2] = molecular target: LCK tyrosine kinase (Homo sapiens, UniProt P06239, C224D/P223M); assay: LCK spectrophotometric assay; format: biochemical; conditions: Table 1; compound concentration 1 µM; read-out: Lck-P* (% inhibition)
Experimental: The spectrophotometric assay was carried out as described above for VEGF-R2, except for the following changes in concentration: LCK = 60 nM, MgCl2 = 0 mM, poly(E4Y1) = 20 mM.

[3] = molecular target: human FGF-R1 (Homo sapiens, UniProt P11362, C488A/C584S/L457V); assay: FGF-R spectrophotometric assay; format: biochemical; conditions: Table 1; compound concentration 1 µM; read-out: FGF-P* (% inhibition)
Experimental: The spectrophotometric assay was carried out as described above for VEGF-R2, except for the following changes in concentration: FGF-R = 50 nM, ATP = 2 mM, and poly(E4Y1) =15 mM.

[4] = test system: human umbilical vein endothelial cells (HUVEC); assay: HUVEC proliferation assay (VEGF-stimulated, MTT); format: cell-based; conditions: Table 1
Experimental: This assay determines the ability of a test compound to inhibit the growth factor-stimulated proliferation of human umbilical vein endothelial cells ("HUVEC"). HUVEC cells (passage 3-4, Clonetics, Corp.) were thawed into EGM2 culture medium (Clonetics Corp) in T75 flasks. Fresh EGM2 medium was added to the flasks 24 hours later. Four or five days later, cells were exposed to another culture medium (F12K medium supplemented with 10% fetal bovine serum (FBS), 60 µg/mL endothelial cell growth supplement (ECGS), and 0.1 mg/mL heparin). Exponentially-growing HUVEC cells were used in experiments thereafter. Ten to twelve thousand HUVEC cells were plated in 96-well dishes in 100 µl of rich, culture medium (described above). The cells were allowed to attach for 24 hours in this medium. The medium was then removed by aspiration and 105 µl of starvation media (F12K+1% FBS) was added to each well. After 24 hours, 15 µl of test agent dissolved in 1% DMSO in starvation medium or this vehicle alone was added into each treatment well; the final DMSO concentration was 0.1%. One hour later, 30 µl of VEGF (30 ng/mL) in starvation media was added to all wells except those containing untreated controls; the final VEGF concentration was 6 ng/mL. Cellular proliferation was quantified 72 hours later by MTT dye reduction, at which time cells were exposed for 4 hours MTT (Promega Corp.).

[5] = in vitro; format: in vitro ADME, human
Experimental: Compound metabolism in human liver microsomes was measured by LC-MS analytical assay procedures as follows. First, human liver microsomes (HLM) were thawed and diluted to 5 mg/mL with cold 100 mM potassium phosphate (KPO4) buffer. Appropriate amounts of KPO4 buffer, NADPH-regenerating solution (containing B-NADP, glucose-6-phosphate, glucose-6-phosphate dehydrogenase, and MgCl2), and HLM were preincubated in 13 x 100 mm glass tubes at 37 C for 10 min. (3 tubes per test compound--triplicate). Test compound (5 µM final) was added to each tube to initiate reaction and was mixed by gentle vortexing, followed by incubation at 37 °C. At t=0, 2 h, a 250-µL sample was removed from each incubation tube to separate 12 x 75 mm glass tubes containing 1 mL ice-cold acetonitrile with 0.05 µM reserpine. […] Supernatant was transferred to new 12 x 75 mm glass tubes and evaporated by Speed-Vac centrifugal vacuum evaporator. Samples were reconstituted in 200 µL 0.1 % formic acid/acetonitrile (90/10) and vortexed vigorously to dissolve. The samples were then transferred to separate polypropylene microcentrifuge tubes and centrifuged at 14000 x g for 10 min. (Fisher Micro 14, S/N M0017580). For each replicate (#1-3) at each timepoint (0 and 2 h), an aliquot sample of each test compound was combined into a single HPLC vial insert (6 total samples) for LC-MS analysis, which is described below.

[6] = Homo sapiens, HUVEC, + albumin, read-out: HUVEC + albumin IC50
[7] = human liver microsomes, 5 µM test compound, 37 °C, 2 h
[8] = Homo sapiens, HUVEC, read-out: HUVEC IC50

unphosphorylated VEGF-R2Δ50, sequence (P35968 with tags, fused parts or gaps DEL940-989/E990V limits assumed): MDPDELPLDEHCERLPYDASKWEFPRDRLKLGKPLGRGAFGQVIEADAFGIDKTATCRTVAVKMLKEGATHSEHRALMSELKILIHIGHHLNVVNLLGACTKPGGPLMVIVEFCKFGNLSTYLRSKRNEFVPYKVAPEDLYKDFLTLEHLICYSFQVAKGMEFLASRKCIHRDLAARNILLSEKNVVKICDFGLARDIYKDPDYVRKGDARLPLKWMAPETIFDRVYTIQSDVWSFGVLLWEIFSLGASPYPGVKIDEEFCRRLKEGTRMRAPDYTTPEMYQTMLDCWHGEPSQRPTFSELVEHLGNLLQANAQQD
LCK tyrosine kinase, sequence (P06239 223-509 P223M/C224D): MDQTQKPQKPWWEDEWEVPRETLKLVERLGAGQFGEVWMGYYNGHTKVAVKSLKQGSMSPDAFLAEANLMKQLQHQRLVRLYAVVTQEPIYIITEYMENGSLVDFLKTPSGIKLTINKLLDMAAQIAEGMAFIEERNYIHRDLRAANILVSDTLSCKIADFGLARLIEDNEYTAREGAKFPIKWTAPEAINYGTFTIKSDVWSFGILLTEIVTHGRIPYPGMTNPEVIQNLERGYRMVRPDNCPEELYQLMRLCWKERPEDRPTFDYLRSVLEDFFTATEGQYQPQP
human FGF-R1, sequence (P11362 456-766 L457V/C488A/C584S): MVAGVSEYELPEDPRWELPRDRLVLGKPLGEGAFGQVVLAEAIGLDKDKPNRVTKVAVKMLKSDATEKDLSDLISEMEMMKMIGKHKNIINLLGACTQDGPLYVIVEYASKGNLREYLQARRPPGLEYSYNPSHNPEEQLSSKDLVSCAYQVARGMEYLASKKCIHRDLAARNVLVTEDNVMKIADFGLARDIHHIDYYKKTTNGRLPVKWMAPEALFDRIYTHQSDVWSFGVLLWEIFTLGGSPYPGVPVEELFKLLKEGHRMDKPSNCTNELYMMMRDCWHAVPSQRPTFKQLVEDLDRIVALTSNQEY

SMILES: C(=C\c1n[nH]c2cc(-c3cccnc3)ccc12)/c1ccccc1 [Reference Example 27(e), 6-pyridin-3-yl-3-E-styryl-1H-indazole]
- inhibition at 1 µM [1]: 34%

SMILES: C(=C\c1n[nH]c2cc(-c3ccncc3)ccc12)/c1nc2ccccc2[nH]1 [Reference Example 29(q), 6-pyrid-4-yl-3-E-[2-(benzimidazol-2-yl)ethenyl]-1H-indazole]
- inhibition at 1 µM [1]: 11%

SMILES: Cc1cc(C(=O)Nc2cccc(C(=O)c3ccc4c(/C=C/c5ccccn5)n[nH]c4c3)c2)cc(Cl)n1 [Reference Example 41(q), 6-[3-((2-chloro-6-methylpyridin-4-yl)carboxamido)benzoyl]-3-E-[2-(pyridin-2-yl)ethenyl]-1H-indazole]
- inhibition at 1 µM [2]: 53%
- inhibition at 0.05 µM [1]: 100%
- inhibition at 1 µM [3]: 91%

SMILES: CNC(=O)c1cccc(F)c1Sc1ccc2c(/C=C/c3ccccn3)n[nH]c2c1 [Reference Example 37(d), 6-[6-Fluoro-2-(methylcarbamoyl)phenylsulfanyl]-3-E-[2-(pyridin-2-yl)ethenyl]-1H-indazole]
- inhibition at 1 µM [2]: 10%
- inhibition at 0.05 µM [1]: 26%
- inhibition at 1 µM [3]: 38%

SMILES: Oc1ccc(-c2ccc3c(/C=C/c4ccccc4)n[nH]c3c2)cn1 [Reference Example 28(c), 6-(2-hydroxypyridin-5-yl)-3-E-styryl-1H-indazole]
- inhibition at 1 µM [1]: 34%

SMILES: Cc1ccc(C(=O)c2ccc3c(/C=C/c4ccccn4)n[nH]c3c2)cc1N [Reference Example 40(b), 6-(3-Amino-4-methyl-benzoyl)-3-E-[2-(pyridin-2-yl)ethenyl]-1H-indazole]
- inhibition at 1 µM [2]: 32%
- inhibition at 0.05 µM [1]: 89%
- inhibition at 1 µM [3]: 92%

SMILES: C#CCNC(=O)c1ccccc1C(=O)c1ccc2c(/C=C/c3ccccn3)n[nH]c2c1 [Example 56]
- inhibition at 0.05 µM [1]: 5%

SMILES: O=C(N/N=C/C(F)(F)F)c1ccccc1Sc1ccc2c(/C=C/c3ccccn3)n[nH]c2c1 [Reference Example 36(c)]
- inhibition at 1 µM [2]: 28%
- inhibition at 0.05 µM [1]: 89%
- inhibition at 1 µM [3]: 60%

SMILES: N#CCNC(=O)c1ccccc1Sc1ccc2c(/C=C/c3ccccn3)n[nH]c2c1 [Reference Example 35(w), 6-[2-(Cyanomethylcarbamoyl)phenylsulfanyl]-3-E-[2-(pyridin-2-yl)ethenyl]-1H-indazole]
- inhibition at 0.05 µM [1]: 59%
- IC50 [4, 6]: 35 nM

SMILES: O=CNc1ccccc1/C=C/c1n[nH]c2cc(C(=O)c3cccc(NC(=O)c4ccccc4)c3)ccc12 [Example 43, 6-(3-Benzamidobenzoyl)-3-E-[2-(2-formamidophenyl)ethenyl]-1H-indazole]
- % remain (HLM, 2 h) ([5]; human, microsomes, 2 h, 5 µM): 2%

SMILES: O=C(N/N=C/c1ccccn1)c1ccccc1Sc1ccc2c(/C=C/c3ccccn3)n[nH]c2c1 [Reference Example 36(b)]
- inhibition at 1 µM [2]: 22%
- inhibition at 0.05 µM [1]: 85%
- inhibition at 1 µM [3]: 43%

SMILES: CNC(=O)c1ccccc1Nc1ccc2c(/C=C/c3ccccn3)n[nH]c2c1 [Example 39(a), 6-[2-(Methylcarbamoyl)phenylanzino]-3-E-[2-(pyridin-2-yl)ethenyl]-1H-indazole]
- % remain (HLM, 2 h) ([5]; human, microsomes, 2 h, 5 µM): 70%

SMILES: O=C(c1cccc(NC(=O)c2cccc3[nH]ccc23)c1)c1ccc2c(/C=N/n3cccc3)n[nH]c2c1 [Example 45(a), 6-[3-(Indol-4-ylcarboxamido)benzoyl]-3-E-[N-(pyrrol-1-yl)iminomethyl]-1H-indazole]
- % remain (HLM, 2 h) ([5]; human, microsomes, 2 h, 5 µM): 97%

SMILES: COc1cccc(/C=C/c2n[nH]c3cc(-c4ccncc4)ccc23)c1 [Reference Example 29(e)]
- inhibition at 1 µM [1]: 33%

SMILES: O=C(c1cccc(NC(=O)c2cccc(Cl)n2)c1)c1ccc2c(/C=C/c3ccccc3)n[nH]c2c1 [19(m), 6-[3-(6-chloropyridin-2-ylcarboxamido)benzoyl]-3-E-styryl-1H-indazole]
- inhibition at 1 µM [2]: 35%
- % remain (HLM, 2 h) [5, 7]: 61%
- IC50 [4, 6]: 94 nM
- inhibition at 1 µM [3]: 23%

SMILES: CC(=O)Nc1cc(C(=O)c2ccc3c(/C=C/c4ccccn4)n[nH]c3c2)ccc1C [Reference Example 41(gg), 6-(3-acetamido-4-methylbenzoyl)-3-E-[2-(pyridin-2-yl)ethenyl]-1H-indazole]
- inhibition at 1 µM [2]: 27%
- inhibition at 0.05 µM [1]: 84%
- IC50 [4, 6]: 9.5 nM

SMILES: CONC(=O)c1ccccc1Sc1ccc2c(/C=C/c3ccccn3)n[nH]c2c1 [Reference Example 35(r), 6-[2-(methoxycarbamoyl)phenylsulfanyl]-3-E-[2-(pyridin-2-yl)ethenyl]-1H-indazole]
- inhibition at 1 µM [2]: 16%
- % remain (HLM, 2 h) [5, 7]: 51%
- IC50 [4, 6]: 2.3 nM
- IC50 [4, 8]: 0.36 nM

SMILES: O=C(NCc1cccc(F)c1)c1ccccc1Sc1ccc2c(/C=C/c3ccccn3)n[nH]c2c1 [Reference Example 35(ff)]
- inhibition at 1 µM [2]: 25%
- % remain (HLM, 2 h) [5, 7]: 31%
- IC50 [4, 6]: 5.8 nM
- inhibition at 1 µM [3]: 75%

SMILES: CC(=O)c1ccc(C(=O)Nc2cccc(C(=O)c3ccc4c(/C=C/c5ccccn5)n[nH]c4c3)c2)s1 [Reference Example 41(e), 6-[3-((5-acetylthien-2-yl)carboxamido)benzoyl]-3-E-[2-(pyridin-2-yl)ethenyl]-1H-indazole]
- inhibition at 1 µM [2]: 21%
- % remain (HLM, 2 h) [5, 7]: 22%
- IC50 [4, 6]: 5.6 nM
- IC50 [4, 8]: 0.15 nM
- IC50 ([4]; + albumin, read-out: HUVEC + albumin IC50): 6.1 nM
- inhibition at 1 µM [3]: 31%

SMILES: CN(c1cccc(NC(=O)c2ccccc2)c1)c1ccc2c(/C=C/c3ccccc3)n[nH]c2c1 [12(b), N-{3-[Methyl-(3-styryl-1H-indazol-6-yl)-amino]-phenyl}-benzamide]
- inhibition at 1 µM [2]: 32%
- remaining at 2 h, 5 µM ([5]; human, microsomes): 29%
- IC50 [4, 6]: 44 nM
- IC50 [4, 8]: 4.8 nM

SMILES: O=C(Nc1cccc(C(=O)c2ccc3c(/C=C/c4ccccn4)n[nH]c3c2)c1)c1ccncc1 [Reference Example 41(b), 6-[3-(pyridin-4-ylcarboxamido)benzoyl]-3-E-[2-(pyridin-2-yl)ethenyl]-1H-indazole]
- inhibition at 1 µM [2]: 24%
- remaining at 2 h, 5 µM ([5]; human liver microsomes, 5 µM test compound, 37 °C, 2 h, read-out: % remain (HLM, 2 h)): 80%
- IC50 [4, 6]: 9.8 nM
- IC50 [4, 8]: 2 nM
- inhibition at 1 µM [3]: 31%

SMILES: C(=C\c1n[nH]c2cc(-c3ccncc3)ccc12)/c1ccccc1 [Reference Example 27(f)]
- inhibition at 1 µM [1]: 49%

SMILES: Cc1cc(C(=O)Nc2cccc(C(=O)c3ccc4c(/C=C/c5ccccn5)n[nH]c4c3)c2)n(C(C)C)n1 [Reference Example 41(x), 6-[3-((1-Isopropyl-3-methyl-1H-pyrazol-5-yl)carboxamido)benzoyl]-3-E-[2-(pyridin-2-yl)ethenyl]-1H-indazole]
- inhibition at 1 µM [2]: 66%
- inhibition at 0.05 µM [1]: 98%
- IC50 [4, 6]: 4.6 nM

SMILES: O=C(Nc1cccc(C(=O)c2ccc3c(/C=C/c4ccccc4)n[nH]c3c2)c1)c1ccnc(Cl)c1 [19(o), 6-[3-(2-chloropyridin-4-ylcarboxamido)benzoyl]-3-E-styryl-1H-indazole]
- inhibition at 0.05 µM [1]: 89%

SMILES: NC(=O)c1ccccc1Sc1ccc2c(/C=C/c3ccccn3)n[nH]c2c1 [Reference Example 35(d), 6-(2-Carbamoylphenylsulfanyl)-3-E-[2-(pyridin-2-yl)ethenyl]-1H-indazole]
- inhibition at 0.05 µM [1]: 76%

SMILES: CNCCNC(=O)c1ccccc1Sc1ccc2c(/C=C/c3ccccn3)n[nH]c2c1 [Reference Example 35(gg), 6-[2-(2-(methylamino)ethylcarbamoyl)phenylsulfanyl]-3-E-[2-(pyridin-2-yl)ethenyl]-1H-indazole]
- inhibition at 0.05 µM [1]: 23%
